Data taken from patent EP0988300B1, “BENZO(5,6)CYCLOHEPTA(1,2-B)PYRIDINE DERIVATIVES FOR THE INHIBITION OF FARNESYL PROTEIN TRANSFERASE” (SCHERING CORPORATION, priority 1997, dated 1998).

Legend:
COS Cell = COS Cell IC50 (Cell-Based Assay), procedures of WO 95/10516
Description: FPT IC50 (inhibition of farnesyl protein transferase, in vitro enzyme assay) was determined following the assay procedures described in WO 95/10516, published April 20, 1995. GGPT IC50 (inhibition of geranylgeranyl protein transferase, in vitro enzyme assay), COS Cell IC50 (Cell-Based Assay), Cell Mat Assay, and anti-tumor activity (in vivo anti-tumor studies) could be determined by the assay procedures described in WO 95/10516. The disclosure of WO 95/10516 is incorporated herein by reference thereto.

Human tumor cells = test: Soft Agar Assay (anchorage-independent growth, colony count after MTT staining); format: cell-based
Description: Anchorage-independent growth is a characteristic of tumorigenic cell lines. Human tumor cells can be suspended in growth medium containing 0.3% agarose and an indicated concentration of a farnesyl transferase inhibitor. The solution can be overlayed onto growth medium solidified with 0.6% agarose containing the same concentration of farnesyl transferase inhibitor as the top layer. After the top layer is solidified, plates can be incubated for 10-16 days at 37°C under 5% CO2 to allow colony outgrowth. After incubation, the colonies can be stained by overlaying the agar with a solution of MTT (3-[4,5-dimethyl-thiazol-2-yl]-2,5-diphenyltetrazolium bromide, Thiazolyl blue) (1 mg/mL in PBS). Colonies can be counted and the IC50's can be determined.

human FPT = biological target: T1, human FPT (Homo sapiens, UniProt P49354+P49356); test: FPT pM IC50 Assay (scintillation proximity assay, biotin-CVLS and (1-3H)-FPP substrates); format: biochemical; details: 30 pM human FPT, 176 nM FPP, 100 nM biotin-CVLS, 37° C for 1 hour
T1 construct: made in house; host or cells: Baculovirus/Sf-9 insect cells
Description: The enzymatic reaction is performed in 50 mM Tris, 5 µM ZnCl2, 5 mM MgCl2, 0.01 % Triton X-100, 5 mM dithiolthreitol (DTT), pH 7.7 (Buffer R) at 37° C for 1 hour. The purified human FPT (> 95 % pure) was derived from a Baculovirus/Sf-9 expression system. The peptide substrate used was biotin-CVLS (SynPep Corp., Dublin, CA) and (1-^3H)-FPP (21.5 Ci/mmol) was obtained from New England Nuclear Life Science Products (Boston, MA). Compounds were initially dissolved to a final concentration of 4 mg/ml in 100 % DMSO and then to 0.25 µg/ml in 100 % DMSO. Subsequent dilutions of the compound were performed in Buffer R.
The enzymatic reaction is performed in a final volume of 100 µl. Reactions are carried out in a 96 well plate format. […] The reaction is stopped using 150 µl of the Stop Solution consisting of 1.3 mg/ml scintillation beads (strepavidin-coated scintillation proximity beads from. Amersham (Arlington Heights, IL), 250 mM EDTA, pH 8.0 and 0.5 % BSA. The radioactivity is measured after 20 minutes at room temperature.
Compounds are evaluated for their ability to inhibit the reaction by measuring the concentration-dependent percent inhibition of the reaction. […] The enzymatic activity was recorded by measuring the CPM/well using a Wallac 1204 Betaplate BS liquid scintillation counter. […]

| Compound | IC50 (COS Cell) | IC50 (Human tumor cells) | IC50 (human FPT) |
| --- | --- | --- | --- |
| NC(=O)N1CCC(CC(=O)N2CCC([C@@H]3c4c(Br)cc(Cl)cc4CCc4cc(Br)c[n+]([O-])c43)CC2)CC1 [Example 2] | 0.009 to 0.085 µM | 0.025 to 0.183 µM |  |
| O=C(Cc1cc[n+]([O-])cc1)N1CCC([C@@H]2c3c(Br)cc(Cl)cc3CCc3cc(Br)c[n+]([O-])c32)CC1 [Example 3] | 0.009 to 0.085 µM | 0.025 to 0.183 µM |  |
| O=C(Cc1cc[n+]([O-])cc1)N1CCN(C2c3ccc(Cl)cc3CCc3cc(Br)c[n+]([O-])c32)CC1 (centres unmarked) [Example 7] | 0.009 to 0.085 µM | 0.025 to 0.183 µM | 440 pM |
| NC(=O)N1CCC(CC(=O)N2CCN([C@@H]3c4ccc(Cl)cc4CCc4cc(Br)c[n+]([O-])c43)CC2)CC1 [Example 10] |  |  | 410 pM |
